Source: ChEMBL document CHEMBL1201862, “PubChem BioAssay data set” (2004)
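Step 1: Grow cells in 96-well plates. Step 2: Expose to compound for 48 hours at 5 concentrations. Step 3: Interpolate endpoints linearly; if unreached, use highest concentration. Abbreviation: GI50, concentration required for 50% inhibition of growth.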 Active and inactive are the calls of the source. No stated cut-off is given here; in the data, active = GI50 up to about 1.1 µM and inactive = higher.

Tests used:
Assay in all cases: growth of human tumour cells (NCI), 48 h
[1] = test system: UACC-257
[2] = test system: TK-10
[3] = test system: SK-MEL-2
[4] = test system: OVCAR-8
[5] = test system: HCT-116
[6] = test system: M19-MEL
[7] = test system: UACC-62
[8] = test system: SR
[9] = test system: DMS-273
[10] = test system: LOX IMVI
[11] = test system: 786-0
[12] = test system: SF-539
[13] = test system: SK-MEL-5
[14] = test system: CAKI-1
[15] = test system: KM12
[16] = test system: SW-620
[17] = test system: CCRF-CEM
[18] = test system: DLD-1
[19] = test system: OVCAR-5
[20] = test system: HOP-92
[21] = test system: SF-295
[22] = test system: HOP-18
[23] = test system: A498
[24] = test system: DMS-114
[25] = test system: UO-31
[26] = test system: U-251
[27] = test system: A549
[28] = test system: OVCAR-3
[29] = test system: SK-MEL-28
[30] = test system: NCI-H460
[31] = test system: SF-268
[32] = test system: SNB-19
[33] = test system: HOP-62
[34] = test system: SN12C
[35] = test system: HCT-15
[36] = test system: MOLT-4
[37] = test system: EKVX
[38] = test system: NCI-H522
[39] = test system: Malme-3M
[40] = test system: SNB-75
[41] = test system: HL-60
[42] = test system: HT-29
[43] = test system: ACHN
[44] = test system: RXF 393
[45] = test system: IGROV-1
[46] = test system: SK-OV-3
[47] = test system: XF498
[48] = test system: OVCAR-4
[49] = test system: K562
[50] = test system: SNB-78
[51] = test system: LXFL 529
[52] = test system: M14
[53] = test system: NCI-H23
[54] = test system: COLO 205

Question: With `O=C1NC2(CCCC2)/C(=N\O)C12CCCC2` as the molecule, how does the GI50 [1] read?
Answer: The GI50 was > 100 µM (inactive).

Question: What about the GI50 [2] of the same molecule?
Answer: Its GI50 is > 100 µM (inactive).

Question: What about the GI50 [3] of the same molecule?
Answer: The GI50 was > 100 µM (inactive).

Question: What about the GI50 [4] of the same molecule?
Answer: The GI50 was > 100 µM (inactive).

Question: What about the GI50 [5] of the same molecule?
Answer: The GI50 was > 100 µM (inactive).

Question: What about the GI50 [6] of the same molecule?
Answer: The GI50 was > 100 µM (inactive).

Question: And the GI50 [7]?
Answer: Its GI50 is > 100 µM (inactive).

Question: What about the GI50 [8] of the same molecule?
Answer: Its GI50 is > 100 µM (inactive).

Question: What about the GI50 [9] of the same molecule?
Answer: The GI50 was > 100 µM (inactive).

Question: What about the GI50 [10] of the same molecule?
Answer: The GI50 was > 100 µM (inactive).

Question: And the GI50 [11]?
Answer: Its GI50 is > 100 µM (inactive).

Question: What about the GI50 [12] of the same molecule?
Answer: The GI50 was > 100 µM (inactive).

Question: What about the GI50 [13] of the same molecule?
Answer: Its GI50 is > 100 µM (inactive).

Question: What about the GI50 [14] of the same molecule?
Answer: Its GI50 is > 100 µM (inactive).

Question: And the GI50 [15]?
Answer: Its GI50 is > 100 µM (inactive).

Question: And the GI50 [16]?
Answer: Its GI50 is > 100 µM (inactive).

Question: What about the GI50 [17] of the same molecule?
Answer: Its GI50 is > 100 µM (inactive).

Question: And the GI50 [18]?
Answer: The GI50 was > 100 µM (inactive).

Question: What about the GI50 [19] of the same molecule?
Answer: Its GI50 is > 100 µM (inactive).

Question: What about the GI50 [20] of the same molecule?
Answer: The GI50 was > 100 µM (inactive).

Question: And the GI50 [21]?
Answer: The GI50 was > 100 µM (inactive).

Question: What about the GI50 [22] of the same molecule?
Answer: Its GI50 is > 100 µM (inactive).

Question: What about the GI50 [23] of the same molecule?
Answer: Its GI50 is > 100 µM (inactive).

Question: What about the GI50 [24] of the same molecule?
Answer: Its GI50 is > 100 µM (inactive).

Question: What about the GI50 [25] of the same molecule?
Answer: The GI50 was > 100 µM (inactive).

Question: What about the GI50 [26] of the same molecule?
Answer: Its GI50 is > 100 µM (inactive).

Question: And the GI50 [27]?
Answer: Its GI50 is > 100 µM (inactive).

Question: What about the GI50 [28] of the same molecule?
Answer: The GI50 was > 100 µM (inactive).

Question: And the GI50 [29]?
Answer: The GI50 was > 100 µM (inactive).

Question: And the GI50 [30]?
Answer: Its GI50 is > 100 µM (inactive).

Question: And the GI50 [31]?
Answer: The GI50 was > 100 µM (inactive).

Question: And the GI50 [32]?
Answer: The GI50 was > 100 µM (inactive).

Question: And the GI50 [33]?
Answer: Its GI50 is > 100 µM (inactive).

Question: And the GI50 [34]?
Answer: Its GI50 is > 100 µM (inactive).

Question: And the GI50 [35]?
Answer: Its GI50 is > 100 µM.

Question: What about the GI50 [36] of the same molecule?
Answer: The GI50 was > 100 µM (inactive).

Question: What about the GI50 [37] of the same molecule?
Answer: The GI50 was > 100 µM (inactive).

Question: And the GI50 [38]?
Answer: The GI50 was > 100 µM (inactive).

Question: And the GI50 [39]?
Answer: The GI50 was > 100 µM (inactive).

Question: What about the GI50 [40] of the same molecule?
Answer: Its GI50 is > 100 µM (inactive).

Question: And the GI50 [41]?
Answer: The GI50 was > 100 µM (inactive).

Question: What about the GI50 [42] of the same molecule?
Answer: Its GI50 is > 100 µM (inactive).

Question: What about the GI50 [43] of the same molecule?
Answer: Its GI50 is > 100 µM (inactive).

Question: And the GI50 [44]?
Answer: Its GI50 is > 100 µM (inactive).

Question: And the GI50 [45]?
Answer: The GI50 was > 100 µM (inactive).

Question: What about the GI50 [46] of the same molecule?
Answer: The GI50 was > 100 µM (inactive).

Question: And the GI50 [47]?
Answer: The GI50 was > 100 µM (inactive).

Question: What about the GI50 [48] of the same molecule?
Answer: The GI50 was > 100 µM (inactive).

Question: And the GI50 [49]?
Answer: Its GI50 is > 100 µM (inactive).

Question: What about the GI50 [50] of the same molecule?
Answer: The GI50 was > 100 µM (inactive).

Question: And the GI50 [51]?
Answer: Its GI50 is > 100 µM (inactive).

Question: What about the GI50 [52] of the same molecule?
Answer: Its GI50 is > 100 µM (inactive).

Question: What about the GI50 [53] of the same molecule?
Answer: Its GI50 is > 100 µM (inactive).

Question: And the GI50 [54]?
Answer: Its GI50 is > 100 µM (inactive).
